ChEMBL document CHEMBL5512654, “Discovery of novel Thymol-TPP antibiotics that eradicate MRSA persisters” (Eur J Med Chem, 2024)
In brackets after ≈: the same amount, converted by molar mass.

Key:
Staphylococcus aureus [1] = assay: Antibacterial activity against Staphylococcus aureus ATCC 43300 assessed as inhibition of bacterial growth measured after 18 hrs by microplate reader; type: functional; conditions: read-out: MIC100
Staphylococcus aureus [2] = assay: Antibacterial activity against methicillin-resistant Staphylococcus aureus USA 300 assessed as inhibition of bacterial growth measured after 18 hrs by microplate reader; type: functional; conditions: read-out: MIC100
Staphylococcus aureus [3] = assay: Antibacterial activity against methicillin-resistant Staphylococcus aureus USA 3390 assessed as inhibition of bacterial growth measured after 18 hrs by microplate reader; type: functional; conditions: read-out: MIC100
Escherichia coli [4] = assay: Antibacterial activity against Escherichia coli ATCC 25922 assessed as inhibition of bacterial growth measured after 18 hrs by microplate reader; type: functional; conditions: read-out: MIC100
Escherichia coli [5] = assay: Antibacterial activity against Escherichia coli 53328 assessed as inhibition of bacterial growth measured after 18 hrs by microplate reader; type: functional; conditions: read-out: MIC100
Pseudomonas aeruginosa [6] = assay: Antibacterial activity against Pseudomonas aeruginosa ATCC 27853 assessed as inhibition of bacterial growth measured after 18 hrs by microplate reader; type: functional; conditions: read-out: MIC100
Pseudomonas aeruginosa [7] = assay: Antibacterial activity against Pseudomonas aeruginosa 535 assessed as inhibition of bacterial growth measured after 18 hrs by microplate reader; type: functional; conditions: read-out: MIC100
Klebsiella pneumoniae [8] = assay: Antibacterial activity against Klebsiella pneumonia ATCC 700603 assessed as inhibition of bacterial growth measured after 18 hrs by microplate reader; type: functional; conditions: read-out: MIC100
Klebsiella pneumoniae [9] = assay: Antibacterial activity against Klebsiella pneumonia 3026 assessed as inhibition of bacterial growth measured after 18 hrs by microplate reader; type: functional; conditions: read-out: MIC100
Acinetobacter baumannii [10] = assay: Antibacterial activity against Acinetobacter baumannii ATCC 19606 assessed as inhibition of bacterial growth measured after 18 hrs by microplate reader; type: functional; conditions: read-out: MIC100
Acinetobacter baumannii [11] = assay: Antibacterial activity against Acinetobacter baumannii ATCC 1318 assessed as inhibition of bacterial growth measured after 18 hrs by microplate reader; type: functional; conditions: read-out: MIC100
[12] = Cytotoxicity against human L02 cells incubated for 72 hrs by MTT dye reduction assay; type: toxicity, cell-based

Row | Structure (SMILES) | MIC (Staphylococcus aureus [1]) [µg/mL] | MIC (Staphylococcus aureus [2]) [µg/mL] | MIC (Staphylococcus aureus [3]) [µg/mL] | MIC (Escherichia coli [4]) [µg/mL] | MIC (Escherichia coli [5]) [µg/mL] | MIC (Pseudomonas aeruginosa [6]) [µg/mL] | MIC (Pseudomonas aeruginosa [7]) [µg/mL] | MIC (Klebsiella pneumoniae [8]) [µg/mL] | MIC (Klebsiella pneumoniae [9]) [µg/mL] | MIC (Acinetobacter baumannii [10]) [µg/mL] | MIC (Acinetobacter baumannii [11]) [µg/mL] | IC50 at 72 h [12] [µg/mL]
1 | Cc1cc(O)c(C(C)C)cc1Cl [CHLOROTHYMOL] | 64 (≈ 347 µM) | 64 (≈ 347 µM) | 64 (≈ 347 µM) |  |  |  |  |  |  |  |  | 
2 | Cc1ccc(-c2cc(C(C)C)c(O)cc2C)cc1 | 8 (≈ 33.3 µM) | 16 (≈ 66.6 µM) | 8 (≈ 33.3 µM) |  |  |  |  |  |  |  |  | 
3 | Cc1ccccc1-c1cc(C(C)C)c(O)cc1C | 8 (≈ 33.3 µM) | 8 (≈ 33.3 µM) | 16 (≈ 66.6 µM) |  |  |  |  |  |  |  |  | 
4 | Cc1cc(O)c(C(C)C)cc1-c1cccc(C(F)(F)F)c1 | 8 (≈ 27.2 µM) | 4 (≈ 13.6 µM) | 8 (≈ 27.2 µM) |  |  |  |  |  |  |  |  | 
5 | Cc1cc(OC(=O)CC[P+](c2ccccc2)(c2ccccc2)c2ccccc2)c(C(C)C)cc1-c1ccccc1.[Br-] |  |  |  | 4 | > 64 | > 64 | > 64 | 32 | > 64 | 32 | 16 | 7.96
6 | Cc1cc(O)c(C(C)C)cc1-c1cccc(C(=O)O)c1 | 8 (≈ 29.6 µM) | 8 (≈ 29.6 µM) | 16 (≈ 59.2 µM) |  |  |  |  |  |  |  |  | 
7 | Cc1cc(OC(=O)CCCC[P+](c2ccccc2)(c2ccccc2)c2ccccc2)c(C(C)C)cc1-c1ccccc1.[Br-] |  |  |  | 16 | 8 | > 64 | > 64 | 32 | 32 | 16 | 8 | 8.31
8 | Cc1cc(OC(=O)CCCCCCC[P+](c2ccccc2)(c2ccccc2)c2ccccc2)c(C(C)C)cc1-c1ccccc1.[Br-] |  |  |  | 4 | 8 | 32 | 32 | 16 | 16 | 8 | 16 | 21.1
9 | Cc1cc(OC(=O)CCC[P+](c2ccccc2)(c2ccccc2)c2ccccc2)c(C(C)C)cc1-c1ccccc1.[Br-] |  |  |  | 16 | 16 | 64 | > 64 | 16 | 32 | 8 | 8 | 5.04
10 | COc1ccccc1-c1cc(C(C)C)c(O)cc1C | > 64 | > 64 | > 64 |  |  |  |  |  |  |  |  | 
11 | COc1cccc(-c2cc(C(C)C)c(O)cc2C)c1 | 16 (≈ 62.4 µM) | 16 (≈ 62.4 µM) | 16 (≈ 62.4 µM) |  |  |  |  |  |  |  |  | 
12 | Cc1ccc(C(C)C)c(O)c1 [THYMOL] | 128 (≈ 852 µM) | 128 (≈ 852 µM) | 256 (≈ 1700 µM) |  |  |  |  |  |  |  |  | 
13 | Cc1cc(O)c(C(C)C)cc1-c1ccc(C(F)(F)F)cc1 | 4 (≈ 13.6 µM) | 4 (≈ 13.6 µM) | 8 (≈ 27.2 µM) |  |  |  |  |  |  |  |  | 
14 | Cc1cc(O)c(C(C)C)cc1-c1ccc(Cl)cc1 | 8 (≈ 30.7 µM) | 4 (≈ 15.3 µM) | 8 (≈ 30.7 µM) |  |  |  |  |  |  |  |  | 
15 | Cc1cc(OC(=O)CCCCCC[P+](c2ccccc2)(c2ccccc2)c2ccccc2)c(C(C)C)cc1-c1ccccc1.[Br-] |  |  |  | 8 | 8 | > 64 | > 64 | 8 | 8 | 8 | 8 | 18.8
16 | Cc1cc(O)c(C(C)C)cc1-c1ccccc1C(=O)O | 16 (≈ 59.2 µM) | 8 (≈ 29.6 µM) | 8 (≈ 29.6 µM) |  |  |  |  |  |  |  |  | 
17 | Cc1cc(O)c(C(C)C)cc1-c1cccc(Cl)c1 | 4 (≈ 15.3 µM) | 8 (≈ 30.7 µM) | 8 (≈ 30.7 µM) |  |  |  |  |  |  |  |  | 
18 | Cc1cc(O)c(C(C)C)cc1-c1ccc(O)cc1 | > 64 | > 64 | > 64 |  |  |  |  |  |  |  |  | 
19 | Cc1cc(O)c(C(C)C)cc1-c1ccccc1F | 8 (≈ 32.7 µM) | 16 (≈ 65.5 µM) | 16 (≈ 65.5 µM) |  |  |  |  |  |  |  |  | 
